We go through one compound from US7592359B2, “Substituted azabicyclo hexane derivatives as muscarinic receptor antagonists” (Ranbaxy Laboratories Limited, priority 2003, dated 2009).

One test deals with T1, M3 muscarinic receptor (Rattus norvegicus, UniProt P08483).
T1 construct: Submandibular glands and heart were isolated and placed in ice cold homogenising buffer; from tissue; host or cells: rat submandibular gland membrane homogenate
Nature of the test: Radioligand binding assay, [3H]-N-methylscopolamine, rat submandibular gland membranes. The following applies: [3H]-NMS binding, read-out: Receptor Binding Assay pKi M3 (converted). How it is done: (§1) Membrane preparation: Submandibular glands and heart were isolated and placed in ice cold homogenising buffer (HEPES 20 mM, 10 mM EDTA, pH 7.4) immediately after sacrifice. The tissues were homogenised in 10 volumes of homogenising buffer and the homogenate was filtered through two layers of wet gauze and filtrate was centrifuged at 500 g for 10 min. The supernatant was subsequently centrifuged at 40,000 g for 20 min. The pellet thus obtained was resuspended in same volume of assay buffer (HEPES 20 mM, EDTA 5 mM, pH 7.4) and were stored at −70° C. until the time of assay.
(§2) Ligand binding assay The compounds were dissolved and diluted in DMSO. The membrane homogenates (150-250 μg protein) were incubated in 250 μl of assay buffer (HEPES 20 mM, pH 7.4) at 24-25° C. for 3 hours. Non-specific binding was determined in the presence of 1 μM atropine. The incubation was terminated by vacuum filtration over GF/B fiber filters (Wallac). The filters were then washed with ice cold 50 mM Tris HCl buffer (pH 7.4). The filter mats were dried and bound radioactivity retained on filters was counted. The IC50 & Kd were estimated by using the non-linear curve fitting program using G Pad Prism software.

In the next test the target is T2, M2 muscarinic receptor (Rattus norvegicus, UniProt P10980).
T2 construct: Submandibular glands and heart were isolated and placed in ice cold homogenising buffer; from tissue; host or cells: rat heart membrane homogenate
T2 sequence (P10980 1-466): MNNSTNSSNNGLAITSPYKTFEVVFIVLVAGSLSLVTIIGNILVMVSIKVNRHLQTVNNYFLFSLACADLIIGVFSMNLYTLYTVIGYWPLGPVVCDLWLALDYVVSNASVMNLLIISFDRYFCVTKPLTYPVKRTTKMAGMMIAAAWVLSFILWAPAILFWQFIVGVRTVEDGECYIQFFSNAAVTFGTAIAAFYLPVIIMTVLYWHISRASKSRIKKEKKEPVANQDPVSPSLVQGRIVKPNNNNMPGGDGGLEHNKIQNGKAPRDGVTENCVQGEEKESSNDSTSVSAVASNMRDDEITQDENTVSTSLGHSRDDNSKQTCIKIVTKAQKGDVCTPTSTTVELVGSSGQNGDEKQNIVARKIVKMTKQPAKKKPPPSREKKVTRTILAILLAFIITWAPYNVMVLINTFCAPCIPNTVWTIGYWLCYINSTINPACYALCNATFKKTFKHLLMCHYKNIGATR
Nature of the test: Radioligand binding assay, [3H]-N-methylscopolamine, rat heart membranes. The following applies: [3H]-NMS binding, read-out: Receptor Binding Assay pKi M2 (converted). The method, then: as §1, §2

SMILES strings stand for the structures.

T1 sequence (P08483 whole entry): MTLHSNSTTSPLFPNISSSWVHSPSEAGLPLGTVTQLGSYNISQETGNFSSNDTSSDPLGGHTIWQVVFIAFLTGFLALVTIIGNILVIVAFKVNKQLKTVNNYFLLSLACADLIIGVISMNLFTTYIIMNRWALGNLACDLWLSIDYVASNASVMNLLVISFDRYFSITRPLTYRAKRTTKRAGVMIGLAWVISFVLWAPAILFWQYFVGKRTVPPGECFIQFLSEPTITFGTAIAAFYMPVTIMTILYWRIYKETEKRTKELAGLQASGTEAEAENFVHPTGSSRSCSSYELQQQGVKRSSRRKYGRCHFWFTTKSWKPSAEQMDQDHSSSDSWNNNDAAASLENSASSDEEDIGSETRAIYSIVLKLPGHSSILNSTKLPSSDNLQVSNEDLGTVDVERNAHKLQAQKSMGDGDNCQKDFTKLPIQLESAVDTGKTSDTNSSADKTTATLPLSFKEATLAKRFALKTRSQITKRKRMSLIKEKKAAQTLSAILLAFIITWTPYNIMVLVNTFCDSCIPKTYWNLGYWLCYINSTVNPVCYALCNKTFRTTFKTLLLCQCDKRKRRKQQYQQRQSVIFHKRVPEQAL

For the compound `O=C(NC12CC1CN(Cc1ccccc1)C2)C(CO)c1ccccc1` (stereo not drawn) [Compound No. 4, (1α,5α)-N-[3-benzyl-3-azabicyclo[3.1.0]hex-1-yl]-2-hydroxymethyl-2-phenylacetamide], the Ki on M3 muscarinic receptor was 7.94 µM; at M2 muscarinic receptor, 15.8 µM.
